Data published in patent US8871753B2, “Macrocyclic compounds and their use as kinase inhibitors” (Incyte Corporation, priority 2008, dated 2014).
Counter-ions that a name gives are not always drawn. Like-named read-outs stand apart in the source and are kept apart here.

What was measured:
Type in all cases: biochemical
[1] = biological target: T1, Recombinant Human Anaplastic Lymphoma Kinase (Homo sapiens, UniProt Q9UM73); test: ALK HTRF kinase assay; conditions: for IC50: Table D1, 90 μM ATP
T1 construct: purchased Invitrogen, Carlsbad, Calif
Outline: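 Recombinant human ALK phosphorylated a biotinylated synthetic peptide. Phosphotyrosine was detected by TR-FRET between a Eu-labelled anti-phosphotyrosine antibody and streptavidin-allophycocyanin. IC50 values came from fitting signal against inhibitor concentration to a four-parameter logistic equation with variable Hill slope.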

[2] = biological target: TYK2 (Homo sapiens, UniProt P29597); test: TYK2 kinase inhibition (Table A1)
[3] = biological target: T2, human JAK3 (a.a. 781-1124) (Homo sapiens, UniProt P52333); test: In vitro JAK kinase assay (HTRF, phosphorylation of a biotinylated peptide), JAK3
T2 construct: JAK3 (a.a. 781-1124); His tag (N); made in house; host or cells: insect cells (baculovirus)
Outline: (§1)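 Phosphorylation of a biotinylated peptide by the JAK kinase domain, detected by HTRF with Eu-Py20 and SA-APC. ATP was 90 μM for JAK1, 30 μM for JAK2 and 3 μM for JAK3. Reactions ran 1 h at room temperature and were stopped with EDTA, followed by 40 min antibody binding.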

[4] = biological target: T3, human JAK2 (a.a. 828-1132) (Homo sapiens, UniProt O60674); test: In vitro JAK kinase assay (HTRF, phosphorylation of a biotinylated peptide), JAK2
T3 construct: JAK2 (a.a. 828-1132); His tag (N); made in house; host or cells: insect cells (baculovirus)
Outline: as §1

[5] = biological target: T4, human JAK1 (a.a. 837-1142) (Homo sapiens, UniProt P23458); test: In vitro JAK kinase assay (HTRF, phosphorylation of a biotinylated peptide), JAK1; conditions: read-out: JAK1 IC50
T4 construct: human JAK1 (a.a. 837-1142); His tag (N); made in house; host or cells: insect cells (baculovirus)
Outline: as §1

[6] = compound at a concentration of 500 nM or 1 mM (not specified), cells shown as percentage
[7] = percentage inhibition of the example compound at a concentration of 500 nM or 1 mM (not specified which)

T2 sequence (P52333 781-1124): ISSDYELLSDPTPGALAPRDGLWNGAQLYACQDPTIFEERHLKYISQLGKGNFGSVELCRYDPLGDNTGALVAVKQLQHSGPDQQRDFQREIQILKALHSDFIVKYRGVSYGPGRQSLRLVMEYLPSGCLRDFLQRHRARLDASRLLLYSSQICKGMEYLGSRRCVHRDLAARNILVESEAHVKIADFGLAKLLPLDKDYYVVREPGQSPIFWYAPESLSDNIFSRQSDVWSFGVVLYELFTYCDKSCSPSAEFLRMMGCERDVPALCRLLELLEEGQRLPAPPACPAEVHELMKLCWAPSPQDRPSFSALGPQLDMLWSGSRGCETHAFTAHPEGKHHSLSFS
T3 sequence (O60674 828-1132): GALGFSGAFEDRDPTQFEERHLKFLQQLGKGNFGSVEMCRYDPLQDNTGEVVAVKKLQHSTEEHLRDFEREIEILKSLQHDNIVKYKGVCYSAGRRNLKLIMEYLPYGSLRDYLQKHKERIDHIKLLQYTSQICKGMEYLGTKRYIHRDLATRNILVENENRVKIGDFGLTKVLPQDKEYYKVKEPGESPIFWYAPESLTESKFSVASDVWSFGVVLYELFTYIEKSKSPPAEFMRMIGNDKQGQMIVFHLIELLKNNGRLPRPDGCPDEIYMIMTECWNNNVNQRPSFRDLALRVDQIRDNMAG
TYK2, sequence (P29597 whole entry): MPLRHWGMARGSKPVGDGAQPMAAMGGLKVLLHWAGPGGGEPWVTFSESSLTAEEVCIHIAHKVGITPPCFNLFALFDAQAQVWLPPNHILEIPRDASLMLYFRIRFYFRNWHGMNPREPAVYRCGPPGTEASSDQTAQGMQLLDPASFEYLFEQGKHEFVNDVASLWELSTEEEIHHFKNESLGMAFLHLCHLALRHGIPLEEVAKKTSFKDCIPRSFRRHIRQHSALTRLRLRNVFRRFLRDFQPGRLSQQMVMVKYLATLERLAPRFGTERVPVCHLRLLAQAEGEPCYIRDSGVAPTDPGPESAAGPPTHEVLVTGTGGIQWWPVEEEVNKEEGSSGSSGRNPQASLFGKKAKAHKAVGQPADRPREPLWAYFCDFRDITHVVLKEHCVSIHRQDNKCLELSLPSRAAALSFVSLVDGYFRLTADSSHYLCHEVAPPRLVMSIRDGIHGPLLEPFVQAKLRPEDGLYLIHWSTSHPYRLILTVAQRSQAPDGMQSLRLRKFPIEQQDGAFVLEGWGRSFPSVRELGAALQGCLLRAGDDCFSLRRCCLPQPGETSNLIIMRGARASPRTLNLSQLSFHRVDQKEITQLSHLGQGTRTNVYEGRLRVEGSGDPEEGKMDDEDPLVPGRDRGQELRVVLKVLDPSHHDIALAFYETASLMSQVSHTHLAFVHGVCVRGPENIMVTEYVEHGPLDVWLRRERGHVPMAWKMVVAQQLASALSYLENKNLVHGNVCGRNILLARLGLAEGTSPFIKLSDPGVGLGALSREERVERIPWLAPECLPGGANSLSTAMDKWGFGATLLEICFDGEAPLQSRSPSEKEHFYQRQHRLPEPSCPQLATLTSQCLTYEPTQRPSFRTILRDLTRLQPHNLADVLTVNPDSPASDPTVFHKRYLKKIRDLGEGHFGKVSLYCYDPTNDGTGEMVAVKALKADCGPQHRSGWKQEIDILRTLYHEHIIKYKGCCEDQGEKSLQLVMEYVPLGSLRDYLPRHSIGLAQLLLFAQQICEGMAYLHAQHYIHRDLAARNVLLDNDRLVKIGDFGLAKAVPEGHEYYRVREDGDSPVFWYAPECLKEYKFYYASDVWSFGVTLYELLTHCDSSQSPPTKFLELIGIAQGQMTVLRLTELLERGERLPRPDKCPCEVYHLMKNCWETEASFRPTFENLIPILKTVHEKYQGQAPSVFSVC
T4 sequence (P23458 849-1154): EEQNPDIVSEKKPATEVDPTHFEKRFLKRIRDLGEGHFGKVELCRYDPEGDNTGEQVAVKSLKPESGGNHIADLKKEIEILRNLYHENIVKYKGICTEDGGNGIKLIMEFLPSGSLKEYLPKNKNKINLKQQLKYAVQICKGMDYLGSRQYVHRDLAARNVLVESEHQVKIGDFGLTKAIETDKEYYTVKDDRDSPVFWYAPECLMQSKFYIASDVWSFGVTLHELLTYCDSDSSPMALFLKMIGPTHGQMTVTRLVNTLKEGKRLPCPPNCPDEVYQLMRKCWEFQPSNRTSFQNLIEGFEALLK
T1 sequence (Q9UM73 19-1620): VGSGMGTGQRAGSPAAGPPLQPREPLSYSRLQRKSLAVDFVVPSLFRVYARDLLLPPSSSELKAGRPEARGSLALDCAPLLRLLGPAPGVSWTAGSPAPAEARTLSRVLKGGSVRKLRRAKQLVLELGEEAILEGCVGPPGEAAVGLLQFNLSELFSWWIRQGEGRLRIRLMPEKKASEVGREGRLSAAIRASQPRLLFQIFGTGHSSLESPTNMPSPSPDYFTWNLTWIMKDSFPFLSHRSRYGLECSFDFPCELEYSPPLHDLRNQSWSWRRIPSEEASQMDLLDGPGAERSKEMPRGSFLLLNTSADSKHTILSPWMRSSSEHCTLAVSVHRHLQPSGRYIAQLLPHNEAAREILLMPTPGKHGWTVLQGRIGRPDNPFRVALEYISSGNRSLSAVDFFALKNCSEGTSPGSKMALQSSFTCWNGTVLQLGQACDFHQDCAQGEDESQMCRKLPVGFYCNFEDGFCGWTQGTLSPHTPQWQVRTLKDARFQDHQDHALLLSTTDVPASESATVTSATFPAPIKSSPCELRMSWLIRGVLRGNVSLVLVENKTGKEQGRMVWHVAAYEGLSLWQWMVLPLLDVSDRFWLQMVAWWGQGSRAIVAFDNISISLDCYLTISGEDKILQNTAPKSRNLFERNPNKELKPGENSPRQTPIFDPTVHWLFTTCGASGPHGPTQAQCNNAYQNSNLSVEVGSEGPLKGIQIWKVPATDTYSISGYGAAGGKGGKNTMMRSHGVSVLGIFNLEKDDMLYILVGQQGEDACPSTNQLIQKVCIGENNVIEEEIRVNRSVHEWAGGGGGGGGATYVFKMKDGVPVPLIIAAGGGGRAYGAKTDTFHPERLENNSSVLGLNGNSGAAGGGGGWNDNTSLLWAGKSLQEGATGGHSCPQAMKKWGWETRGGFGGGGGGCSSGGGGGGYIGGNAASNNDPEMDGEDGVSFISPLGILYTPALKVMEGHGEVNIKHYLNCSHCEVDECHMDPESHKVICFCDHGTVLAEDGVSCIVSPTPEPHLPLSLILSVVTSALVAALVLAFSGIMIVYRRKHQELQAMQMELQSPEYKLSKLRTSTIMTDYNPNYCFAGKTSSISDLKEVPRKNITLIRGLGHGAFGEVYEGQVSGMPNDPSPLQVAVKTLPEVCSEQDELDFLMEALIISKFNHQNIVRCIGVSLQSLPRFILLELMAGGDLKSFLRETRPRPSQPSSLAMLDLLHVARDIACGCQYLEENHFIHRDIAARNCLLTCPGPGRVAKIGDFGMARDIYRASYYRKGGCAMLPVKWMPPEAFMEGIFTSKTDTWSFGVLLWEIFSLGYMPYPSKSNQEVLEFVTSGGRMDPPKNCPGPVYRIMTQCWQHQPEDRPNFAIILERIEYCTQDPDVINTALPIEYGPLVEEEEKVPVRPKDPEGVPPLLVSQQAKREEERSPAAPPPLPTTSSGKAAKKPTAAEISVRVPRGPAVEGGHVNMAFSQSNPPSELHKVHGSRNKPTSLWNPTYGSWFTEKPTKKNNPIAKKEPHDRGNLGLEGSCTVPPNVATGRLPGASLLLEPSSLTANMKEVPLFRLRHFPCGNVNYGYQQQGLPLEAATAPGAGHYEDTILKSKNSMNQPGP

SMILES | ALK % of inhibition at a concentration of 500 nM or 1 mM [1, 6] [%] | IC50 ([2]; Table B1) [nM] | IC50 ([3]; Table B1) [nM] | IC50 ([4]; Table B1) [nM] | IC50 ([5]; Table B1) [nM] | ALK % of inhibition at a concentration of 500 nM or 1 mM [1, 7] [%] | IC50 [1] [nM] | IC50 ([2]; Table D1) [nM] | IC50 ([3]; Table D1) [nM] | IC50 ([4]; Table D1) [nM] | IC50 ([5]; Table D1) [nM]
CN1CCOc2cc(S(=O)(=O)Nc3ccc4cc3CCc3cccc(c3)Nc3ncc(Cl)c(n3)N4)ccc21 [Example B165, N-[6-Chloro-2,4,8,22-tetraazatetracyclo[14.3.1.1(3,7).1(9,13)]docosa-1(20),3(22),4,6,9(21),10,12,16,18-nonaen-12-yl]-4-methyl-3,4-dihydro-2H-1,4-benzoxazine-7-sulfonamide trifluoroacetate] | 10 | 20 | 83 | 10 | 13 | – | – | – | – | – | –
CN(Cc1ccc2cc1CCc1cncc(c1)Nc1ncc(Cl)c(n1)N2)CC1CCNCC1 [Example B339, 1-[6-Chloro-2,4,8,18,22-pentaazatetracyclo[14.3.1.1(3,7).1(9,13)]docosa-1(20),3(22),4,6,9(21),10,12,16,18-nonaen-12-yl]-N-methyl-N-(piperidin-4-ylmethyl)methanamine Tetrahydrochloride] | – | > 400 | > 400 | > 400 | 172 | 41 | – | – | – | – | –
CC(C)NC(=O)Nc1ccc2cc1CCc1cccc(c1)Nc1ncc(Cl)c(n1)N2 [Example B116, N-[6-Chloro-2,4,8,22-tetraazatetracyclo[14.3.1.1(3,7).1(9,13)]docosa-1(20), 3(22),4,6,9(21),10,12,16,18-nonaen-12-yl]-N′-isopropylurea trifluoroacetate] | 20 | 10 | 26 | 3.5 | 3.1 | – | – | – | – | – | –
O=C(Nc1ccc2cc1CCc1cncc(c1)Nc1ncc(Cl)c(n1)N2)N[C@H]1CCN(c2nc3cccnc3o2)C1 [Example B275, N-[6-Chloro-2,4,8,18,22-pentaazatetracyclo[14.3.1.1(3,7).1(9,13)]docosa-1(20),3(22),4,6,9(21),10,12,16,18-nonaen-12-yl]-N′-[(3S)-1-[1,3]oxazolo[5,4-b]pyridin-2-ylpyrrolidin-3-yl]urea tris(trifluoroacetate)] | 9.8 | 348 | > 10000 | 129 | 14 | – | – | – | – | – | –
Clc1cnc2nc1Nc1cccc(c1)SCCNc1cccc(c1)N2 [Example D80, 6-Chloro-14-thia-2,4,8,17,24-pentaazatetracyclo[16.3.1.1(3,7).1(9,13)]tetracosa-1(22),3(24),4,6,9(23),10,12,18,20-nonaene bis(trifluoroacetate)] | – | – | – | – | – | – | 570 | 8.8 | 23 | 4.9 | 7.4
Clc1cnc2nc1Nc1cccc(c1)OCCc1cc(Br)cc(c1)N2 [Example D22, 19-Bromo-6-chloro-14-oxa-2,4,8,23-tetraazatetracyclo[15.3.1.1(3,7).1(9,13)]tricosa-1(21),3(23),4,6,9(22),10,12,17,19-nonaene trifluoroacetate] | – | – | – | – | – | – | 489 | 28 | 41 | 7.9 | 4.2
O=C(Nc1ccc2cc1CCc1cncc(c1)Nc1ncc(Cl)c(n1)N2)N1CCC(c2ccccc2)CC1 [Example B314, N-[6-Chloro-2,4,8,18,22-pentaazatetracyclo[14.3.1.1(3,7).1(9,13)]docosa-1(20),3(22),4,6,9(21),10,12,16,18-nonaen-12-yl]-4-phenylpiperidine-1-carboxamide bis(trifluoroacetate)] | – | 67 | > 400 | 108 | 28 | 69 | – | – | – | – | –
CC(=O)N1CCN(Cc2ccc3cc2CCc2cccc(c2)Nc2ncc(Cl)c(n2)N3)CC1 [Example B225, 12-[(4-Acetylpiperazin-1-yl)methyl]-6-chloro-2,4,8,22-tetraazatetracyclo[14.3.1.1(3,7).1(9,13)]docosa-1(20),3(22),4,6,9(21),10,12,16,18-nonaene bis(trifluoroacetate)] | 27 | 46 | 37 | 10 | 31 | – | – | – | – | – | –
